Among the data in patent US10913727B2, “Modulators of the integrated stress pathway” (Calico Life Sciences LLC, priority 2016, dated 2021) are EC50 values, retold here.

Bounds are passed on as bounds.

In this experiment the test system is HEK293T cells carrying the ATF4 luciferase reporter. In words: ATF4-Luc assay, in vitro model of Vanishing Cell White Matter Disease (VWMD). In kind it is cell-based. Conditions: Homo sapiens, HEK-293T, 1 μg/mL tunicamycin, 7 hours, One Glo luminescence. The method in brief:
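Stable HEK293T line with human ATF4 5′-UTR–firefly luciferase reporter treated with 1 μg/mL tunicamycin plus 200 nM compound for 7 h. Luminescence read; EC50 derived.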
As for `O=C(COc1ccc(Cl)c(F)c1)NC12CC(NC(=O)c3cc(N4CCCC4)ccn3)(C1)C2` [Compound 181, N-{3-[2-(4-chloro-3-fluorophenoxy)acetamido]bicyclo[1.1.1]pentan-1-yl}-4-(pyrrolidin-1-yl)pyridine-2-carboxamide], the EC50 fell in the range of 250 to 1000 nM.
To `COCc1nc(C(=O)NC23CC(NC(=O)COc4ccc(Cl)c(Cl)c4)(C2)C3)cs1` [Compound 925, N-{3-[2-(3,4-dichlorophenoxy)acetamido]bicyclo[1.1.1]pentan-1-yl}-2-(methoxymethyl)-1,3-thiazole-4-carboxamide] belongs below 50 nM; to `Cc1nc(C(=O)NC23CCC(NC(=O)COc4ccc(Cl)c(F)c4)(CC2)C(O)C3)cs1` (centres unmarked) [Compound 473, N-{4-[2-(4-chloro-3-fluorophenoxy)acetamido]-3-hydroxybicyclo[2.2.2]octan-1-yl}-2-methyl-1,3-thiazole-4-carboxamide], 50 to 250 nM; to `Cc1ccnc(C(=O)NC23CCC(NC(=O)COc4ccc(Cl)c(F)c4)(CC2)C(O)C3)c1` (centres unmarked) [Compound 915, N-{4-[2-(4-chloro-3-fluorophenoxy)acetamido]-3-hydroxybicyclo[2.2.2]octan-1-yl}-4-methylpyridine-2-carboxamide], 250 to 1000 nM.
To `O=C(COc1ccc(Cl)c(Cl)c1)NC12CCC(NC(=O)c3cnc(C(F)F)cn3)(CC1)C[C@@H]2O` [Compound 703, N-{(3S)-4-[2-(3,4-dichlorophenoxy)acetamido]-3-hydroxybicyclo[2.2.2]octan-1-yl}-5-(difluoromethyl)pyrazine-2-carboxamide] belongs below 50 nM.
The result for `CC(=O)c1ccnc(C(=O)NC23CC(NC(=O)COc4ccc(Cl)c(F)c4)(C2)C3)c1` [Compound 501, 4-acetyl-N-{3-[2-(4-chloro-3-fluorophenoxy)acetamido]bicyclo[1.1.1]pentan-1-yl}pyridine-2-carboxamide] reads 1000 to 2000 nM; that for `N#Cc1ccc(C(=O)NC23CC(NC(=O)COc4ccc(Cl)c(F)c4)(C2)C3)cc1F` [Compound 371, N-{3-[2-(4-chloro-3-fluorophenoxy)acetamido]bicyclo[1.1.1]pentan-1-yl}-4-cyano-3-fluorobenzamide], 50 to 250 nM.
As to `COc1cncc(C(=O)NC23CC(NC(=O)COc4ccc(Cl)c(F)c4)(C2)C3)c1` [Compound 790, N-{3-[2-(4-chloro-3-fluorophenoxy)acetamido]bicyclo[1.1.1]pentan-1-yl}-5-methoxypyridine-3-carboxamide], the EC50 was 50 to 250 nM.
Consider `O=C(COc1ccc(Cl)c(F)c1)NC12CCC(NC(=O)c3ccncn3)(CC1)C(O)C2` (centres unmarked) [Compound 226, N-{4-[2-(4-chloro-3-fluorophenoxy)acetamido]-2-hydroxybicyclo[2.2.2]octan-1-yl}pyrimidine-4-carboxamide], for which the EC50 is 250 to 1000 nM.
To `N#Cc1ccnc(C(=O)NC23CC(NC(=O)COc4ccc(Cl)c(F)c4)(C2)C3)c1` [Compound 182, N-{3-[2-(4-chloro-3-fluorophenoxy)acetamido]bicyclo[1.1.1]pentan-1-yl}-4-cyanopyridine-2-carboxamide] belongs 50 to 250 nM.
The result for `O=C(COc1ccc(Cl)c(F)c1)NC12CCC(NC(=O)c3cnc(-c4ccccc4)o3)(CC1)C[C@@H]2O` [Compound 931, N-{(3S)-4-[2-(4-chloro-3-fluorophenoxy)acetamido]-3-hydroxybicyclo[2.2.2]octan-1-yl}-2-phenyl-1,3-oxazole-5-carboxamide] reads below 50 nM; that for `O=C(COc1ccc2c(c1)OC(F)(F)O2)NC12CC(NC(=O)c3ccc(OC(F)(F)F)nc3)(C1)C2` [Compound 379, N-(3-{2-[(2,2-difluoro-2H-1,3-benzodioxol-5-yl)oxy]acetamido}bicyclo[1.1.1]pentan-1-yl)-6-(trifluoromethoxy)pyridine-3-carboxamide], 50 to 250 nM; that for `O=C(COc1ccc(Cl)c(Cl)c1)NC12CC(NC(=O)c3cnc4ccccc4n3)(C1)C2` [Compound 920, N-{3-[2-(3,4-dichlorophenoxy)acetamido]bicyclo[1.1.1]pentan-1-yl}quinoxaline-2-carboxamide], below 50 nM.
In the case of `O=C(COc1ccc(Cl)c(F)c1)NC12CC(NC(=O)c3ncccn3)(C1)C2` [Compound 793, N-{3-[2-(4-chloro-3-fluorophenoxy)acetamido]bicyclo[1.1.1]pentan-1-yl}pyrimidine-2-carboxamide], the concentration giving a half-maximal response (EC50) lay in the range of 250 to 1000 nM.
The result for `O=C(COc1ccc(Cl)c(F)c1)NC12CCC(NC(=O)c3cccc(O)n3)(CC1)CC2O` (centres unmarked) [Compound 943, N-{4-[2-(4-chloro-3-fluorophenoxy)acetamido]-3-hydroxybicyclo[2.2.2]octan-1-yl}-6-hydroxypyridine-2-carboxamide] reads 50 to 250 nM.
The result for `CN(C)Cc1cccc(C(=O)NC23CC(NC(=O)COc4ccc(Cl)c(F)c4)(C2)C3)c1` [Compound 553, N-{3-[2-(4-chloro-3-fluorophenoxy)acetamido]bicyclo[1.1.1]pentan-1-yl}-3-[(dimethylamino)methyl]benzamide] reads above 2000 nM.
For the compound `Cn1nc(C(F)F)cc1C(=O)NC12CC(NC(=O)COc3ccc(Cl)c(F)c3)(C1)C2` [Compound 365, N-{3-[2-(4-chloro-3-fluorophenoxy)acetamido]bicyclo[1.1.1]pentan-1-yl}-3-(difluoromethyl)-1-methyl-1H-pyrazole-5-carboxamide], the EC50 was below 50 nM.
For the compound `CC(O)c1ccnc(C(=O)NC23CC(NC(=O)COc4ccc(Cl)c(F)c4)(C2)C3)c1` (centres unmarked) [Compound 524, N-{3-[2-(4-chloro-3-fluorophenoxy)acetamido]bicyclo[1.1.1]pentan-1-yl}-4-(1-hydroxyethyl)pyridine-2-carboxamide], the EC50 fell in the range of 250 to 1000 nM.
For `O=C(COc1ccc(Cl)c(F)c1)NC12CCC(NC(=O)c3ccc(OCC(F)(F)F)nc3)(CC1)CC2O` (centres unmarked) [Compound 579, N-{4-[2-(4-chloro-3-fluorophenoxy)acetamido]-3-hydroxybicyclo[2.2.2]octan-1-yl}-6-(2,2,2-trifluoroethoxy)pyridine-3-carboxamide], the EC50 lay in the range of 50 to 250 nM.
In the case of `O=C(COc1ccc(Cl)c(F)c1)NC12CCC(NC(=O)c3ccno3)(CC1)C(O)C2` (centres unmarked) [Compound 215, N-{4-[2-(4-chloro-3-fluorophenoxy)acetamido]-2-hydroxybicyclo[2.2.2]octan-1-yl}-1,2-oxazole-5-carboxamide], the EC50 was 50 to 250 nM.
As for `Cc1nc(C(=O)NC23CC(NC(=O)COc4ccc(Cl)c(Cl)c4)(C2)C3)cs1` [Compound 559, N-{3-[2-(3,4-dichlorophenoxy)acetamido]bicyclo[1.1.1]pentan-1-yl}-2-methyl-1,3-thiazole-4-carboxamide], the concentration giving a half-maximal response (EC50) is below 50 nM.
To `O=C(COc1ccc(Cl)c(Cl)c1)NC12CC(NC(=O)c3cc(CCO)ccn3)(C1)C2` [Compound 281, N-{3-[2-(3,4-dichlorophenoxy)acetamido]bicyclo[1.1.1]pentan-1-yl}-4-(2-hydroxyethyl)pyridine-2-carboxamide] belongs 50 to 250 nM.
The result for `CCc1noc(C)c1C(=O)NC12CC(NC(=O)COc3ccc(Cl)c(F)c3)(C1)C2` [Compound 824, N-{3-[2-(4-chloro-3-fluorophenoxy)acetamido]bicyclo[1.1.1]pentan-1-yl}-3-ethyl-5-methyl-1,2-oxazole-4-carboxamide] reads above 2000 nM; that for `Cn1nc(C(F)F)cc1C(=O)NC12CCC(NC(=O)COc3ccc(Cl)c(F)c3)(CC1)C[C@@H]2O` [Compound 413, N-{(2S)-4-[2-(4-chloro-3-fluorophenoxy)acetamido]-2-hydroxybicyclo[2.2.2]octan-1-yl}-3-(difluoromethyl)-1-methyl-1H-pyrazole-5-carboxamide], below 50 nM.
Consider `Cc1cc(C(=O)NC23CCC(NC(=O)COc4ccc(Cl)c(F)c4)(CC2)[C@@H](O)C3)on1` (single isomer, unassigned) [Compound 358], for which the EC50 is below 50 nM.
The result for `O=C(COc1ccc(F)c(F)c1)NC12CCC(NC(=O)c3ccc(C(F)(F)F)cn3)(CC1)C(O)C2` (centres unmarked) [Compound 349, N-{4-[2-(3,4-difluorophenoxy)acetamido]-2-hydroxybicyclo[2.2.2]octan-1-yl}-5-(trifluoromethyl)pyridine-2-carboxamide] reads 250 to 1000 nM.
As to `Cc1nccn1-c1ccccc1C(=O)NC12CC(NC(=O)COc3ccc(Cl)c(F)c3)(C1)C2` [Compound 883, N-{3-[2-(4-chloro-3-fluorophenoxy)acetamido]bicyclo[1.1.1]pentan-1-yl}-2-(2-methyl-1H-imidazol-1-yl)benzamide], the EC50 is above 2000 nM.
As for `Cc1cc(C(=O)NC23CC(NC(=O)COc4ccc(Cl)c(F)c4)(C2)C3)oc1C` [Compound 612, N-{3-[2-(4-chloro-3-fluorophenoxy)acetamido]bicyclo[1.1.1]pentan-1-yl}-4,5-dimethylfuran-2-carboxamide], the EC50 was 50 to 250 nM.
The result for `NS(=O)(=O)c1ccc(C(=O)NC23CC(NC(=O)COc4ccc(Cl)c(F)c4)(C2)C3)cn1` [Compound 325, N-{3-[2-(4-chloro-3-fluorophenoxy)acetamido]bicyclo[1.1.1]pentan-1-yl}-6-sulfamoylpyridine-3-carboxamide] reads above 2000 nM; that for `O=C(COc1ccc(Cl)c(F)c1)NC12CCC(NC(=O)c3cnccn3)(CC1)C(O)C2` (centres unmarked) [Compound 219, N-{4-[2-(4-chloro-3-fluorophenoxy)acetamido]-2-hydroxybicyclo[2.2.2]octan-1-yl}pyrazine-2-carboxamide], 50 to 250 nM; that for `Cc1oncc1C(=O)NC12CC(NC(=O)COc3ccc(Cl)c(F)c3)(C1)C2` [Compound 908, N-{3-[2-(4-chloro-3-fluorophenoxy)acetamido]bicyclo[1.1.1]pentan-1-yl}-5-methyl-1,2-oxazole-4-carboxamide], above 2000 nM.
To `Cc1nocc1C(=O)NC12CCC(NC(=O)COc3ccc(Cl)c(F)c3)(CC1)C(O)C2` (centres unmarked) [Compound 605, N-{4-[2-(4-chloro-3-fluorophenoxy)acetamido]-3-hydroxybicyclo[2.2.2]octan-1-yl}-3-methyl-1,2-oxazole-4-carboxamide] belongs above 2000 nM.

The EC50 is the concentration needed to bring the measured effect to its halfway point.
